Experimental data as given in PubChem BioAssay (NCI).
Values joined by “and” are separate entries in the source; they are usually repeats but may differ in a detail not shown here. Identical values can stand only once.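 Method: 48-hour compound exposure of cells in 96-well plates, five concentrations, linear interpolation of endpoints. Abbreviation: GI50, concentration required for 50% inhibition of growth. The concentration for full growth arrest is given as TGI.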

Experiments:
Assay in all cases: NCI anticancer screen, dose series, 48 h
UACC-257 melanoma = tested on: UACC-257 melanoma
K-562 leukemia = tested on: K-562 leukemia
HCT-116 colon = tested on: HCT-116 colon
PC-3 prostate = tested on: PC-3 prostate
SF-268 CNS = tested on: SF-268 CNS
SK-MEL-28 melanoma = tested on: SK-MEL-28 melanoma
RXF 393 renal = tested on: RXF 393 renal
NCI-H226 lung = tested on: NCI-H226 lung
EKVX NSCLC = tested on: EKVX NSCLC
SNB-19 CNS = tested on: SNB-19 CNS

SMILES | TGI (UACC-257 melanoma) | TGI (K-562 leukemia) | TGI (HCT-116 colon) | TGI (PC-3 prostate) | TGI (SF-268 CNS) | TGI (SK-MEL-28 melanoma) | TGI (RXF 393 renal) | TGI (NCI-H226 lung) | TGI (EKVX NSCLC) | TGI (SNB-19 CNS) | GI50 (K-562 leukemia) | GI50 (RXF 393 renal) | GI50 (EKVX NSCLC)
CCOC(=O)C1(C#N)CC1 | > 100 µM | > 100 µM | > 100 µM | > 100 µM | > 100 µM | > 100 µM | > 100 µM | > 100 µM | > 100 µM | > 100 µM | – | – | –
C[C@@H]1CC(=O)C[C@@H]2CC[C@H]3[C@@H]4CC[C@H](OC(=O)c5cccc6cc7ccccc7nc56)[C@H]4CC[C@@H]3[C@H]21 | 30.8 µM | 38 µM | 27.1 µM | 27.1 µM | 20.9 µM | 93.3 µM | 34.9 µM | 63.7 µM | 34.7 µM | 37.5 µM | – | – | –
CN(C)c1ccc(/C=C/c2sc3ccccc3[n+]2C)cc1 | 7.85 µM and 11.9 µM | 4.26 µM and 26.2 µM | 10.9 µM and > 100 µM | 10.9 µM and 22.8 µM | 17.5 µM and 23 µM | 15.7 µM and 6.34 µM | 27.8 µM and 36.3 µM | 15.4 µM and 7.31 µM | 31.9 µM and 19.8 µM | 14 µM and > 100 µM | 0.515 µM and 0.856 µM | 11 µM and 5.02 µM | 9.19 µM and 2.31 µM
O=c1c(Cc2ccc(Cl)cc2)nnc2sc(-c3ccc(-c4ccc(Cl)cc4Cl)o3)nn12 | > 100 µM | > 100 µM | > 100 µM | > 100 µM | > 100 µM | > 100 µM | > 100 µM | > 100 µM | > 100 µM | > 100 µM | – | – | –
C#CC(O)/C=C/CCCCCCC#CC/C=C\CC#CCCCCCCCCC(O)C#C (stereo not drawn) | 15.1 µM | > 21.6 µM | 7.77 µM | 31.6 µM | 25.8 µM | 13.1 µM | 31.6 µM | 35.5 µM | 10.3 µM | 37.5 µM | – | – | –
COC(=O)C1(SC)C2CCC3C2CCC31 (stereo not drawn) | > 100 µM | > 100 µM | > 100 µM | > 100 µM | > 100 µM | > 100 µM | > 100 µM | > 100 µM | > 100 µM | > 100 µM | – | – | –
CC1(C)COC2=C(C1)C(=O)c1ccccc1C2=O | 2.11 µM | 1.52 µM | 1.7 µM | 3.58 µM | 3.57 µM | 3.11 µM | 3.51 µM | 4.8 µM | 3.59 µM | 3.82 µM | – | – | –
COC1(CC[C@@H](C)COC2OC(CO)C(O)C(O)C2O)O[C@H]2C[C@H]3[C@@H]4CC=C5C[C@@H](OC6OC(CO)C(O)C(OC7OC(CO)C(O)C(O)C7O)C6OC6OC(C)C(O)C(O)C6O)CC[C@]5(C)[C@H]4CC[C@]3(C)[C@H]2[C@@H]1C (stereo partly drawn) | 26.3 µM | > 62.8 µM | 34.9 µM | 21.4 µM | 26.4 µM | 12.4 µM | 19.5 µM | 26.5 µM | 35.3 µM | 21.2 µM | – | – | –
COc1ccc(C2C(=O)c3c(OC)cc(OC)cc3OC2c2cccnc2)cc1 (stereo not drawn) | > 100 µM | > 100 µM | > 100 µM | > 100 µM | > 100 µM | > 100 µM | > 100 µM | > 100 µM | > 100 µM | > 100 µM | – | – | –
